This note sets out measurements from patent US12209102B2, “Heterocyclic compounds and uses thereof” (Kumquat Biosciences Inc., priority 2022, dated 2025).

One test deals with T1, K-Ras WT (Homo sapiens, UniProt P01116).
T1 construct: made in house; host or cells: E. coli BL21 (DE3)
Briefly: HTRF resonance energy transfer assay, K-Ras WT / SOS1 interaction. It is filed as biochemical. To be noted: HTRF assay of Example 5; read-out: IC50 against K-Ras WT. In short, it runs like this:
(§1)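 Compounds, tested in duplicate at 10 μM down to 0.01 μM, were read after about 10 min or more by HTRF as the 665/620 nm emission ratio (337 nm excitation) to derive IC50. This ratio reports FRET between an anti-GST-Eu donor on GST-K-Ras (wild-type or mutant) and an anti-6His-XL665 acceptor on His-hSOS1. Buffer: ~5 mM HEPES pH 7.4, 150 mM NaCl, 1 mM DTT, 0.05% BSA, 0.0025% Igepal.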
Background: Time-resolved FRET reads energy transfer from a long-lived donor to a nearby acceptor.

The next test concerns GP2D cells. Briefly: Ras cellular assay, growth of cells with K-Ras G12D mutation (CellTiter-Glo). It is filed as cell-based. To be noted: cell growth, Example 9, G12D mutation, read-out: IC50 against GP2D cells.
Another test concerns A549 cells. Briefly: Ras cellular assay, growth of cells with K-Ras G12S mutation (CellTiter-Glo). The test is classed as cell-based. To be noted: Homo sapiens, cell growth, Example 9, G12S mutation, read-out: IC50 against A549 cells. In short, it runs like this:
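Growth inhibition IC50 values come from four-parameter fits of CellTiter-Glo luminescence, read about 6 days after compound addition. G12S-mutant A549 cells (e.g. 800/well, RPMI-1640 + 10% heat-inactivated FBS) were plated in tissue-culture-treated or ultra-low-attachment 384-well format. Dosing began the following day with serial dilutions, e.g. 10 points, 3-fold.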

The target of a further test is T2, K-Ras G12S (Homo sapiens, UniProt P01116, G12S).
T2 construct: made in house; host or cells: E. coli BL21 (DE3)
Briefly: HTRF resonance energy transfer assay, K-Ras G12S / SOS1 interaction. The test is classed as biochemical. Particulars: HTRF assay of Example 5; read-out: IC50 against K-Ras G12S. A digest of the protocol: as §1

The next test deals with T3, K-Ras G12V (Homo sapiens, UniProt P01116, G12V).
T3 construct: made in house; host or cells: E. coli BL21 (DE3)
Briefly: HTRF resonance energy transfer assay, K-Ras G12V / SOS1 interaction. It is filed as biochemical. To be noted: HTRF assay of Example 5; read-out: IC50 against K-Ras G12V. In short, it runs like this:
as §1

Another test deals with T4, K-Ras G12D (Homo sapiens, UniProt P01116, G12D).
T4 construct: made in house; host or cells: E. coli BL21 (DE3)
Briefly: HTRF resonance energy transfer assay, K-Ras G12D / SOS1 interaction. The test is classed as biochemical. Particulars: HTRF assay of Example 5; read-out: IC50 against K-Ras G12D. In short, it runs like this:
as §1

A further test has as its system SW620 cells. Briefly: Ras cellular assay, growth of cells with K-Ras G12V mutation (CellTiter-Glo). The test is classed as cell-based. To be noted: Homo sapiens, SW-620; cell growth, Example 9, G12V mutation; read-out: IC50 against SW620 cells. In short, it runs like this: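 IC50 values came from a four-parameter fit of CellTiter-Glo viability, read roughly 6 days after dosing with e.g. a 10-point threefold dilution series. G12V-mutant SW620 cells (e.g. 800 per well) had been plated the previous day in RPMI-1640/10% heat-inactivated FBS, on tissue culture-treated or ultra-low attachment plates.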
For orientation: ATP-based viability assays read luminescence as a measure of living cells.

T1 sequence (P01116 1-188 isoform P01116-2): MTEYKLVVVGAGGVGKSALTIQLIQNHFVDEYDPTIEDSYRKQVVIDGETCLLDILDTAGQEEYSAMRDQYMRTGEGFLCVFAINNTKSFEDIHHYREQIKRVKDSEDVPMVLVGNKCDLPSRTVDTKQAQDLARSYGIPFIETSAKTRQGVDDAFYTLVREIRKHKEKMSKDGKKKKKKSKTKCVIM
T3 sequence (P01116 1-188 isoform P01116-2 G12V): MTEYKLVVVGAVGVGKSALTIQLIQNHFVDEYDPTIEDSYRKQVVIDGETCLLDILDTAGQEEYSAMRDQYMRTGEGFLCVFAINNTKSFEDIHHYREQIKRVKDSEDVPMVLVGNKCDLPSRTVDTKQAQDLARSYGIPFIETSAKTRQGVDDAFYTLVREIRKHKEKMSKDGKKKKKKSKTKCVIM
T2 sequence (P01116 1-188 isoform P01116-2 G12S): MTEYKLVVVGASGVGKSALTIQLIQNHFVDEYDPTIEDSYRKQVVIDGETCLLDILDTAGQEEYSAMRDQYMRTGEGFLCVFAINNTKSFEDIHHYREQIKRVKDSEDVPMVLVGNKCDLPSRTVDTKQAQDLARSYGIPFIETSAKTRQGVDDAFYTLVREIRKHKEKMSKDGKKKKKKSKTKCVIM
T4 sequence (P01116 1-188 isoform P01116-2 G12D): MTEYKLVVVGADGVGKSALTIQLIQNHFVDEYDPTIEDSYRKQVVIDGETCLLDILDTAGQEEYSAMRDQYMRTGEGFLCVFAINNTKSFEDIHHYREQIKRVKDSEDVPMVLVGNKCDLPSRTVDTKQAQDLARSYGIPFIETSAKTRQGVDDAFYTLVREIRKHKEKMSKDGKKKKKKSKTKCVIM

The term IC50 denotes the point on the concentration scale where inhibition reaches its midpoint. Regarding `N#Cc1c(N)sc2c(F)ccc(-c3c(Cl)c4c5c(nc(OC[C@@]67CCCN6C[C@H](F)C7)nc5c3F)N(C3CCN(C(=O)C5COC5)C3)CCO4)c12` (stereo partly drawn) [Compound 757, 2-amino-4-(8-chloro-10-fluoro-2-(((2R,7aS)-2-fluorotetrahydro-1H-pyrrolizin-7a(5H)-yl)methoxy)-4-(1-(oxetane-3-carbonyl)pyrrolidin-3-yl)-5,6-dihydro-4H-[1,4]oxazepino[5,6,7-de]quinazolin-9-yl)-7-fluorobenzo[b]thiophene-3-carbonitrile], the IC50 was less than 100 nM at K-Ras WT; less than 500 nM with GP2D cells; less than 5000 nM with A549 cells; less than 100 nM on K-Ras G12S; less than 100 nM on K-Ras G12V; less than 100 nM at K-Ras G12D. Further, in the test on SW620 cells, the IC50 is less than 5000 nM.
In the case of `Cn1cc(N2CCOc3c(Cl)c(-c4ccc(F)c5sc(N)c(C#N)c45)c(F)c4nc(OC[C@@]56CCCN5C[C@H](F)C6)nc2c34)cn1` [Compound 765, 2-amino-4-(8-chloro-10-fluoro-2-(((2R,7aS)-2-fluorotetrahydro-1H-pyrrolizin-7a(5H)-yl)methoxy)-4-(1-methyl-1H-pyrazol-4-yl)-5,6-dihydro-4H-[1,4]oxazepino[5,6,7-de]quinazolin-9-yl)-7-fluorobenzo[b]thiophene-3-carbonitrile], the IC50 was less than 100 nM on K-Ras WT; less than 500 nM in the test with GP2D cells; less than 5000 nM in the test on A549 cells; less than 100 nM on K-Ras G12S; less than 100 nM on K-Ras G12V; less than 100 nM at K-Ras G12D. Further, the IC50 in the test on SW620 cells is less than 5000 nM.
In the case of `C#Cc1c(F)ccc2cc(O)cc(-c3nc4c5c(nc(OC[C@@]67CCCN6C[C@H](F)C7)nc5c3F)N(C3CCOC3)CCN4)c12` (stereo partly drawn) [Compound 771, 5-ethynyl-6-fluoro-4-(4-fluoro-2-(((2R,7aS)-2-fluorotetrahydro-1H-pyrrolizin-7a(5H)-yl)methoxy)-10-(tetrahydrofuran-3-yl)-7,8,9,10-tetrahydro-1,3,6,7,10-pentaazacyclohepta[de]naphthalen-5-yl)naphthalen-2-ol], the IC50 on K-Ras WT was less than 100 nM; with GP2D cells it was less than 500 nM; with A549 cells, less than 5000 nM; at K-Ras G12S, less than 100 nM; on K-Ras G12V it was less than 100 nM; at K-Ras G12D it was less than 100 nM. Further, in the test on SW620 cells, the IC50 was less than 5000 nM.
For the compound `N#Cc1c(N)sc2c(F)ccc(-c3c(Cl)c4c5c(nc(OC[C@@]67CCCN6C[C@H](F)C7)nc5c3F)N(C3CCN(C(=O)C[C@@H]5CCCO5)C3)CCO4)c12` (stereo partly drawn) [Compound 777, 2-amino-4-(8-chloro-10-fluoro-2-(((2R,7aS)-2-fluorotetrahydro-1H-pyrrolizin-7a(5H)-yl)methoxy)-4-(1-(2-((S)-tetrahydrofuran-2-yl)acetyl)pyrrolidin-3-yl)-5,6-dihydro-4H-[1,4]oxazepino[5,6,7-de]quinazolin-9-yl)-7-fluorobenzo[b]thiophene-3-carbonitrile], the IC50 is less than 100 nM on K-Ras WT; less than 500 nM in the test with GP2D cells; less than 5000 nM in the test on A549 cells; less than 100 nM at K-Ras G12S; less than 100 nM on K-Ras G12V; less than 100 nM at K-Ras G12D. Further, in the test on SW620 cells, the concentration for half-maximal inhibition (IC50) was less than 5000 nM.
`N#Cc1c(N)sc2c(F)ccc(-c3c(Cl)c4c5c(nc(OC[C@@]67CCCN6C[C@H](F)C7)nc5c3F)N(C3CCN(C(=O)COC(F)F)C3)CCO4)c12` (stereo partly drawn) [Compound 785, 2-amino-4-(8-chloro-4-(1-(2-(difluoromethoxy)acetyl)pyrrolidin-3-yl)-10-fluoro-2-(((2R,7aS)-2-fluorotetrahydro-1H-pyrrolizin-7a(5H)-yl)methoxy)-5,6-dihydro-4H-[1,4]oxazepino[5,6,7-de]quinazolin-9-yl)-7-fluorobenzo[b]thiophene-3-carbonitrile]: the IC50 at K-Ras WT was less than 100 nM; with GP2D cells, less than 500 nM; in the test on A549 cells, less than 5000 nM; on K-Ras G12S, less than 100 nM; at K-Ras G12V, less than 100 nM; on K-Ras G12D, less than 100 nM. Besides, in the test on SW620 cells, the IC50 is less than 5000 nM.
Turning to `N#Cc1c(N)sc2c(F)ccc(-c3c(Cl)c4c5c(nc(OC[C@@]67CCCN6C[C@H](F)C7)nc5c3F)N([C@H]3CCOC3)CCO4)c12` [Compound 793, 2-amino-4-(8-chloro-10-fluoro-2-(((2R,7aS)-2-fluorotetrahydro-1H-pyrrolizin-7a(5H)-yl)methoxy)-4-((S)-tetrahydrofuran-3-yl)-5,6-dihydro-4H-[1,4]oxazepino[5,6,7-de]quinazolin-9-yl)-7-fluorobenzo[b]thiophene-3-carbonitrile], the half-inhibitory concentration (IC50) at K-Ras WT was less than 100 nM; with GP2D cells, less than 500 nM; in the test on A549 cells it was less than 5000 nM; at K-Ras G12S it was less than 100 nM; at K-Ras G12V it was less than 100 nM; at K-Ras G12D, less than 100 nM. Also, the IC50 in the test with SW620 cells is less than 5000 nM.
Regarding `N#Cc1c(N)sc2c(F)ccc(-c3c(Cl)c4c5c(nc(OC[C@@]67CCCN6C[C@H](F)C7)nc5c3F)N([C@@H]3CCN(C(=O)C(F)F)C3)CCO4)c12` [Compound 796, 2-amino-4-(8-chloro-4-((R)-1-(2,2-difluoroacetyl)pyrrolidin-3-yl)-10-fluoro-2-(((2R,7aS)-2-fluorotetrahydro-1H-pyrrolizin-7a(5H)-yl)methoxy)-5,6-dihydro-4H-[1,4]oxazepino[5,6,7-de]quinazolin-9-yl)-7-fluorobenzo[b]thiophene-3-carbonitrile], the IC50 on K-Ras WT was less than 100 nM; in the test on GP2D cells, less than 500 nM; in the test on A549 cells, less than 5000 nM; on K-Ras G12S, less than 100 nM; on K-Ras G12V, less than 100 nM; at K-Ras G12D, less than 100 nM. The IC50 in the test with SW620 cells was less than 5000 nM.
With `N#Cc1c(N)sc2c(F)ccc(-c3c(Cl)c4c5c(nc(OC[C@@]67CCCN6C[C@H](F)C7)nc5c3F)N(CC3(C#N)CC3)CCO4)c12` [Compound 798, 2-amino-4-(8-chloro-4-((1-cyanocyclopropyl)methyl)-10-fluoro-2-(((2R,7aS)-2-fluorotetrahydro-1H-pyrrolizin-7a(5H)-yl)methoxy)-5,6-dihydro-4H-[1,4]oxazepino[5,6,7-de]quinazolin-9-yl)-7-fluorobenzo[b]thiophene-3-carbonitrile], the IC50 was less than 100 nM on K-Ras WT; less than 500 nM in the test on GP2D cells; less than 5000 nM in the test on A549 cells; less than 100 nM at K-Ras G12S; less than 100 nM at K-Ras G12V; less than 100 nM on K-Ras G12D. In the test on SW620 cells, the IC50 is less than 5000 nM.
`N#Cc1c(N)sc2c(F)ccc(-c3c(Cl)c4c5c(nc(OC[C@@]67CCCN6C[C@H](F)C7)nc5c3F)N(C3COCCOC3)CCO4)c12` [Compound 803, 2-amino-4-(8-chloro-4-(1,4-dioxepan-6-yl)-10-fluoro-2-(((2R,7aS)-2-fluorotetrahydro-1H-pyrrolizin-7a(5H)-yl)methoxy)-5,6-dihydro-4H-[1,4]oxazepino[5,6,7-de]quinazolin-9-yl)-7-fluorobenzo[b]thiophene-3-carbonitrile]: the IC50 on K-Ras WT was less than 100 nM; in the test with GP2D cells it was less than 500 nM; in the test on A549 cells, less than 5000 nM; at K-Ras G12S, less than 100 nM; at K-Ras G12V it was less than 100 nM; on K-Ras G12D, less than 100 nM. Further, the IC50 in the test on SW620 cells is less than 5000 nM.
As for `N#Cc1c(N)sc2c(F)ccc(-c3c(Cl)c4c5c(nc(OC[C@@]67CCCN6C[C@H](F)C7)nc5c3F)N(CCC(F)F)CCO4)c12` [Compound 807, 2-amino-4-(8-chloro-4-(3,3-difluoropropyl)-10-fluoro-2-(((2R,7aS)-2-fluorotetrahydro-1H-pyrrolizin-7a(5H)-yl)methoxy)-5,6-dihydro-4H-[1,4]oxazepino[5,6,7-de]quinazolin-9-yl)-7-fluorobenzo[b]thiophene-3-carbonitrile], the IC50 at K-Ras WT is less than 100 nM; in the test with GP2D cells, less than 500 nM; with A549 cells it was less than 5000 nM; on K-Ras G12S, less than 100 nM; on K-Ras G12V, less than 100 nM; at K-Ras G12D it was less than 100 nM. The IC50 with SW620 cells was less than 5000 nM.
Regarding `N#Cc1c(N)sc2c(F)ccc(-c3c(Cl)c4c5c(nc(OC[C@@]67CCCN6C[C@H](F)C7)nc5c3F)N(C3CCN(C(=O)COC5CC5)C3)CCO4)c12` (stereo partly drawn) [Compound 812, 2-amino-4-(8-chloro-4-(1-(2-cyclopropoxyacetyl)pyrrolidin-3-yl)-10-fluoro-2-(((2R,7aS)-2-fluorotetrahydro-1H-pyrrolizin-7a(5H)-yl)methoxy)-5,6-dihydro-4H-[1,4]oxazepino[5,6,7-de]quinazolin-9-yl)-7-fluorobenzo[b]thiophene-3-carbonitrile], the half-maximal inhibitory concentration (IC50) on K-Ras WT is less than 100 nM; in the test on GP2D cells it was less than 500 nM; in the test on A549 cells it was less than 5000 nM; on K-Ras G12S, less than 100 nM; on K-Ras G12V, less than 100 nM; on K-Ras G12D, less than 100 nM. Besides, the IC50 with SW620 cells is less than 5000 nM.
